{
  "source": "paper PMC6479946",
  "about": "(Molecules, 2019)",
  "experiment": "Pharmacokinetic study in rats after oral HAR and MEM alone and in combination (plasma, UPLC-MS/MS, non-compartmental)",
  "conditions": "rat plasma, n = 8, mean ± SD",
  "procedure": "The analytes were separated on an ACQUITY UPLC BEH C18 column (2.1 mm × 50 mm, 1.7 μm, Waters, Milford, USA). […] The flow rate was 0.3 mL/min. The column and sample-tray temperature were kept at 40 °C and 4 °C, respectively. The injection volume was 5.0 μL using a partial loop with needle over fill mode.\nThe compound dependent parameters used for analysis were summarized in Supplementary materials Table S1.\nA rapid and convenient precipitation method was used to prepare the plasma samples. A 100 μL aliquot of plasma sample was spiked with 100 μL of IS solution and 300 μL of methanol in a 1.5 mL centrifuge tube; subsequently, the mixtures were vortex-mixed for 30.0 s and then centrifuged at 1.5 × 10^4× g for 10 min at 4 °C. A 100 μL aliquot of supernatant was combined with 25.0 μL of 0.1% formic acid water in a clean centrifuge tube and then vortex-mixed for 30 s. A 5.0 μL aliquot of mixture was injected into the UPLC-MS/MS system for analysis.\nFifty-six pathogen-free male adult rats were randomly divided into seven groups with eight rats in each group for pharmacokinetic study. […] One group was intragastrically administered with MEM hydrochloride 5.0 mg/kg dissolved in ultrapure water, namely, MEM group. […] The blood samples were immediately centrifuged at 4.0 × 10^3× g at […] for 10 min, and 100 μL of the supernatant plasma was transferred into another new 1.5 mL centrifuge tube and stored at −20 °C until UPLC-MS/MS analysis.\nAll standard curves and quantitative data were processed by Agilent Mass Hunter Quantitative Analysis Workstation Software. […] All the pharmacokinetic parameters were processed using the non-compartmental pharmacokinetics data analysis software program PK solutions 2.0^TM (Summit Research Services, USA). […] The AUC(0-t) was obtained by the linear/logarithmic trapezoidal rule, and the area under the plasma concentration versus time curve from zero to infinity (AUC(0-∞)) was calculated by means of the trapezoidal rule with extrapolation to infinity with a terminal elimination rate constant. The Pearson correlation coefficient analysis was processed by IBM SPSS Statistics Version 21. A statistical analysis was performed using analysis of variance with α = 0.05 as the minimal level of significance.",
  "key": {"[1]": {"conditions": "HOL as metabolite after oral HAR 40.0 mg/kg + MEM 5.0 mg/kg (HAR-M + MEM)"}, "[2]": {"conditions": "HOL as metabolite after oral HAR 40.0 mg/kg alone (HAR-M)"}, "[3]": {"conditions": "HOL as metabolite after oral HAR 80.0 mg/kg + MEM 5.0 mg/kg (HAR-H + MEM)"}, "[4]": {"conditions": "HOL as metabolite after oral HAR 80.0 mg/kg alone (HAR-H)"}},
  "note": "Marks after values point to notes of the source that are not given here.",
  "data": [
    {"substance": "harmol [HOL]", "values": [
      {"measurement": "AUC(0-t) of HOL", "setting": "[1]", "value": "35.5 ± 15.3", "unit": "ng·h/mL"},
      {"measurement": "AUC(0-∞) of HOL", "setting": "[1]", "value": "43.1 ± 21.9", "unit": "ng·h/mL"},
      {"measurement": "Cmax of HOL", "setting": "[1]", "value": "18.0 ± 5.95", "unit": "ng/mL"},
      {"measurement": "Ka of HOL", "setting": "[1]", "value": "1.98 ± 1.72", "unit": "h⁻¹"},
      {"measurement": "Ke of HOL", "setting": "[1]", "value": "0.312 ± 0.271", "unit": "h⁻¹"},
      {"measurement": "MRT of HOL", "setting": "[1]", "value": "5.52 ± 2.55", "unit": "h"},
      {"measurement": "T1/2a of HOL", "setting": "[1]", "value": "2.78 ± 4.59", "unit": "h"},
      {"measurement": "T1/2e of HOL", "setting": "[1]", "value": "3.53 ± 2.19", "unit": "h"},
      {"measurement": "T1/2d of HOL", "setting": "[1]", "value": "2.05 ± 1.61", "unit": "h"},
      {"measurement": "Tmax of HOL", "setting": "[1]", "value": "0.229 ± 0.0589", "unit": "h"},
      {"measurement": "AUC(0-t) of HOL", "setting": "[2]", "value": "27.1 ± 10.8", "unit": "ng·h/mL"},
      {"measurement": "AUC(0-∞) of HOL", "setting": "[2]", "value": "29.6 ± 11.3", "unit": "ng·h/mL"},
      {"measurement": "Cmax of HOL", "setting": "[2]", "value": "10.4 ± 2.13", "unit": "ng/mL"},
      {"measurement": "Ka of HOL", "setting": "[2]", "value": "0.808 ± 1.28", "unit": "h⁻¹"},
      {"measurement": "Ke of HOL", "setting": "[2]", "value": "0.400 ± 0.133", "unit": "h⁻¹"},
      {"measurement": "MRT of HOL", "setting": "[2]", "value": "4.44 ± 1.78", "unit": "h"},
      {"measurement": "T1/2a of HOL", "setting": "[2]", "value": "2.22 ± 1.67", "unit": "h"},
      {"measurement": "T1/2e of HOL", "setting": "[2]", "value": "1.94 ± 0.712", "unit": "h"},
      {"measurement": "T1/2d of HOL", "setting": "[2]", "value": "1.89 ± 1.07", "unit": "h"},
      {"measurement": "Tmax of HOL", "setting": "[2]", "value": "0.198 ± 0.324", "unit": "h"},
      {"measurement": "AUC(0-t) of HOL", "setting": "[3]", "value": "158 ± 59.9 ^bbb ng*h/mL"},
      {"measurement": "AUC(0-∞) of HOL", "setting": "[3]", "value": "327 ± 140 ^bbb ng*h/mL"},
      {"measurement": "Cmax of HOL", "setting": "[3]", "value": "40.4 ± 10.9 ^bbb ng/mL"},
      {"measurement": "Ka of HOL", "setting": "[3]", "value": "0.864 ± 1.00", "unit": "h⁻¹"},
      {"measurement": "Ke of HOL", "setting": "[3]", "value": "0.0899 ± 0.0912 ^b /h"},
      {"measurement": "MRT of HOL", "setting": "[3]", "value": "23.5 ± 19.3 ^b h"},
      {"measurement": "T1/2a of HOL", "setting": "[3]", "value": "2.15 ± 2.05", "unit": "h"},
      {"measurement": "T1/2e of HOL", "setting": "[3]", "value": "17.2 ± 14.7 ^b h"},
      {"measurement": "T1/2d of HOL", "setting": "[3]", "value": "3.48 ± 4.35", "unit": "h"},
      {"measurement": "Tmax of HOL", "setting": "[3]", "value": "2.39 ± 3.52", "unit": "h"},
      {"measurement": "AUC(0-t) of HOL", "setting": "[4]", "value": "57.8 ± 19.3 ^aaa ng*h/mL"},
      {"measurement": "AUC(0-∞) of HOL", "setting": "[4]", "value": "69.7 ± 23.1 ^aaa ng*h/mL"},
      {"measurement": "Cmax of HOL", "setting": "[4]", "value": "32.4 ± 16.5 ^aa ng/mL"},
      {"measurement": "Ka of HOL", "setting": "[4]", "value": "1.17 ± 1.96", "unit": "h⁻¹"},
      {"measurement": "Ke of HOL", "setting": "[4]", "value": "0.226 ± 0.0896 ^aa /h"},
      {"measurement": "MRT of HOL", "setting": "[4]", "value": "6.04 ± 2.12", "unit": "h"},
      {"measurement": "T1/2a of HOL", "setting": "[4]", "value": "2.02 ± 1.52", "unit": "h"},
      {"measurement": "T1/2e of HOL", "setting": "[4]", "value": "3.57 ± 1.50 ^a h"},
      {"measurement": "T1/2d of HOL", "setting": "[4]", "value": "2.02 ± 1.72", "unit": "h"},
      {"measurement": "Tmax of HOL", "setting": "[4]", "value": "0.271 ± 0.159", "unit": "h"}
    ]}
  ]
}
